# Source: patent publication US6194398A, “Phosphonate nucleotide compound” (Mitsubishi Chemical Corporation, priority 1996, dated 2001)
# Read-outs that look alike come from different tables or passages of the source.
# Tests used:
# Hepatitis B virus (HBV) = test: HBV growth inhibition effect: HBV-DNA synthesis in HB611 cells, Southern blotting; format: cell-based; conditions: read-out: 50% inhibitory concentration for HBV-DNA synthesis
# Description: Hepatitis B virus (HBV) growth inhibition effect
# HBV growth inhibition effect was measured in accordance with a known method (K. Ueda et al., Virology, 169, 213-216 (1989)).
# (§1) A total of 2×10^4 cells of HB611 (a HBV-producing recombinant human hepatoma cell strain) were cultured at 37° C. in Dulbecco's ME medium containing 10% fetal bovine serum, streptomycin (100 μg/ml), penicillin (100 IU/ml) and Geneticin (trade name, an antibiotic substance manufactured by Life Technologies) (0.2 mg/ml). The medium was exchanged on the 2nd and 5th days of the culturing and then replaced by the medium supplemented with a sample to be tested at a final concentration of from 0.005 to 100 μM after 8, 11 and 14 days of the culturing, and DNA was recovered from the cells after 17 days of the culturing. The amount of HBV-DNA in the cells was measured by Southern blotting to calculate concentration of the compound to give 50% inhibition of HBV-DNA synthesis. Also, the concentration of each compound required for causing death to 50% of the HB611 cells was calculated. For the sake of comparison, the same test was carried out on a known compound PMFA, a dipivaloyloxymethyl ester of PMEA (Reference Example 1) and a known compound 9-[2-[bis(2,2,2-trifluoroethyl)-phosphonylmethoxy]ethyl]-2-amino-6-p-toluylthiopurine disclosed in EP 632048 (Reference Example 2). In this connection, the compound No. corresponds to the compound No. in Table 1.
# [1] = Cytotoxicity: concentration causing death to 50% of HB611 cells; format: cell-based; conditions: human, read-out: 50% Cytotoxic concentration for HB611 cells
# Description: as §1, with “The medium was exchanged on the 2nd and 5th days of the culturing and then replaced by the medium supplemented with a sample to be tested at a final concentration of from 0.005 to 100 μM after 8, 11 and 14 days of the culturing, and DNA was recovered from the cells after 17 days of the culturing.” left out
# HBV = test: Inhibitory effect on HBV replication of low molecular weight fraction of liver homogenate of orally dosed mouse; format: cell-based, hepatitis B virus; conditions: 0.2 g/kg oral, liver 1 hour after administration, 1% low molecular weight fraction in HB611 medium
# Description: Inhibitory effect on HBV replication of low molecular weight fraction prepared from liver homogenate of a mouse that was orally administered with a compound.
# A sample to be tested was orally administered to each mouse of three animals per group in a dose of 0.2 g/kg, liver perfusion was carried out from the portal vein one hour after the administration and then the liver was excised. The thus excised liver was mixed with the same weight of physiological saline and was homogenized, and then a sample of low molecular weight fraction of the homogenate was prepared using an ultrafiltration membrane having a cutoff of 5,000 molecular weight.
# A total of 2×10^4 cells of HB611 were cultured at 37° C. in Dulbecco's ME medium containing 10% fetal bovine serum, streptomycin (100 μg/ml), penicillin (100 IU/ml) and Geneticin (0.2 mg/ml). The medium was exchanged on the 2nd and 5th days of the culturing and then replaced by the medium supplemented with 1% of the just described low molecular weight fraction sample after 8, 11 and 14 days of the culturing, and DNA was recovered from the cells after 17 days of the culturing. The amount of HBV-DNA in the cells was measured by Southern blotting to evaluate inhibitory effect on HBV-DNA synthesis in the cells. […]
# [2] = test system: human hepatitis B virus (HBV); conditions: reported in literature; cited from earlier work
# [3] = test system: herpes simplex virus type 1 (HSV-1); conditions: reported in literature; cited from earlier work
# [4] = test system: herpes simplex virus type 2 (HSV-2); conditions: reported in literature; cited from earlier work
# [5] = test system: human immunodeficiency virus (HIV); conditions: reported in literature; cited from earlier work
# [6] = 408 h, HB611 cells, medium with sample on days 8, 11 and 14, DNA recovered after 17 days
smiles,measurement,setting,value
"CCSc1nc(N)nc2c1ncn2CCOCP(=O)(OCC(F)(F)F)OCC(F)(F)F [Compound 2, 2-amino-9-[2-[bis(2,2,2-trifluoroethyl)phosphonylmethoxy]ethyl]-6-ethylthiopurine]",IC50,Hepatitis B virus (HBV); [6],0.06 µM
same,CC50,[1],> 1000 µM
"CCCSc1nc(N)nc2c1ncn2CCOCP(=O)(OCC(F)(F)F)OCC(F)(F)F [Compound 3, 2-amino-9-[2-[bis(2,2,2-trifluoroethyl)phosphonylmethoxy]ethyl]-6-n-propylthiopurine]",IC50,Hepatitis B virus (HBV); [6],0.02 µM
same,% inhibition of HBV-DNA synthesis,HBV,49%
same,CC50,[1],> 1000 µM
"CC(C)Sc1nc(N)nc2c1ncn2CCOCP(=O)(OCC(F)(F)F)OCC(F)(F)F [Compound 4, 2-amino-9-[2-[bis(2,2,2-trifluoroethyl)phosphonylmethoxy]ethyl]-6-i-propylthiopurine]",IC50,Hepatitis B virus (HBV); [6],0.07 µM
same,CC50,[1],> 1000 µM
"Nc1nc(N)c2ncn(CCOCP(=O)(O)O)c2n1 [PMDAP, 9-(2-phosphonylmethoxy)ethyl-2,6-diaminopurine]",effective against HBV,[2],effective
same,effective against HSV-1,[3],effective
same,effective against HSV-2,[4],effective
same,effective against HIV,[5],effective
"Nc1ncnc2c1ncn2CCOCP(=O)(O)O [PMEA, 9-(2-phosphonylmethoxy)ethyladenine]",effective against HBV,[2],effective
same,IC50,"Hepatitis B virus (HBV); HB611, 408 h",0.3 µM
same,effective against HSV-1,[3],effective
same,effective against HSV-2,[4],effective
same,effective against HIV,[5],effective
same,CC50,[1],334 µM
CC(C)(C)C(=O)OCOP(=O)(COCCn1cnc2c(N)ncnc21)OCOC(=O)C(C)(C)C [Ref. Ex. 1],IC50,"Hepatitis B virus (HBV); HB611, 408 h",1.08 µM
same,CC50,[1],17.7 µM
"Cc1ccc(Sc2nc(N)nc3c2ncn3CCOCP(=O)(OCC(F)(F)F)OCC(F)(F)F)cc1 [Ref. Ex. 2, 9-[2-[bis(2,2,2-trifluoroethyl)-phosphonylmethoxy]ethyl]-2-amino-6-p-toluylthiopurine]",IC50,Hepatitis B virus (HBV); [6],0.06 µM
"CCCSc1nc(N)nc2c1ncn2CCOCP(=O)(O)O [Ref. Ex. 3, 2-amino-9-(2-phosphonylmethoxyethyl)-6-n-propylthiopurine]",% inhibition of HBV-DNA synthesis,HBV,17%
